# According to patent publication US20250041461A1, “[177LU] LUTETIUM-PSMA I&T COMPOSITION AND DOSIMETRY, KIT, METHOD OF MAKING, AND METHOD OF USING THEREOF” (Curium US LLC, priority 2023, published 2025):
# Where “and” joins values, the source holds several entries; their conditions need not be identical. Equal entries are not always repeated.
# Test: Dosimetry sub-study, first 12 patients, cycle 1 (SPECT/CT, TIAC, OLINDA 2.2.3)
# Type: in vivo, human
# Details: for dose estimate, Mean: Eclipse; for Extrapolation of Absorbed Dose to 6 Cycles Assuming 7.4 GBq per cycle: kidneys; for Kidneys Absorbed Dose Assuming 7.4 GBq per cycle: one cycle; for Effective Dose Cycle 1: whole body
# Protocol: Twelve subjects were administered a target activity of 7.4 GBq (mean 7.56±0.17 GBq) of [^177Lu]Lu-PSMA-I&T. Following the infusion, subjects underwent single photon emission computed tomography (SPECT)/computed tomography (CT) imaging at four timepoints (4 hours, 24 hours, 48 hours, and 168 hours). Image data was analyzed to compute time integrated activity coefficients (TIAC) in each organ of interest defined a priori in the independent review charter and in organs showing appreciable and meaningful [^177Lu]Lu-PSMA I&T activity. Segmented organs included kidneys, bladder, liver, lacrimal glands, salivary glands, intestine, lumbar vertebrae L2-L4, and whole body. To compute subject-specific organ doses, organ-level TIAC data were entered into Organ Level Internal Dose Assessment (OLINDA 2.2.3) and resulting organ doses for each target organ and whole-body effective dose were collated and averaged.
# Patients received SPECT/CT imaging (anatomical coverage included the salivary gland in most of the patients and extended through the pelvis) following the injection of 7.4 (±10%) GBq of [^177Lu]Lu-PSMA-I&T (detailed injected doses are reported in Table 36). All patients completed the first treatment cycle, and the acquisition of images was carried out. To note, for patient 37-016 the 168 hours SPECT/CT timepoint wasn't acquired, whereas patient 12-004 48 hours scan was presenting unrealistically high values, and the 48 hours scan was therefore excluded from further analysis.
# The imaging data was analyzed using Invicro's VivoQuant software, a validated software used in a 21 CFR § 11-compliant workflow. The general quantification approach was based on the principles detailed in the Medical Internal Radiation Dose (MIRD) Pamphlet No. 16, No 23, and No 26, as appropriate.
# Each SPECT image was co-registered with its corresponding CT. Image calibration was performed to convert the counts measured on the SPECT images to activity (Bq). The same SPECT/CT system was used in each patient for the entirety of the dosimetry study.
# Regions of interest (ROI) (kidneys, bladder, liver, lumbar vertebrae L2-L4, lacrimal glands, salivary glands (parotid and submandibular glands), and whole body) were drawn on each dataset by a trained image analyst. […] Lumbar vertebrae L2-L4 was delineated for all patients on the CT images to derive red marrow doses.^4 For kidneys, a ROI was drawn on the SPECT image encompassing all the uptake seen in the kidneys. Similarly for lacrimal glands, all the uptake observed on the SPECT image at the lacrimal glands' location was segmented. [^177Lu]Lu-PSMA-I&T distribution in a patient imaged over time is represented in FIG. 16.
# Time-activity curves of the activity in each ROI as a function of time were plotted. These curves were normalized by the known injected activity to arrive at units of fraction of injected activity. Calculations of time-integrated activity coefficient (TIAC, in units of hours) were performed for each region of interest listed above.
# Clearance of the tracer was derived from a data-appropriate fit of each organ time activity curve (TAC). Depending on the shape of the TAC, the data was fitted with the sum of one, two or three exponentials or using a rise and fall model. TIACs were calculated through analytical integration of the curve fit extrapolated to infinite. […] The remainder activity was determined by subtracting the cumulative organ TIACs from the whole body TIAC.
# Organ TIACs were inputted into Organ Level Internal Dose Assessment, OLINDA 2.2.3 for the computation of organ and whole-body absorbed doses and effective dose (computed using ICRP-103 weighing factors). ICRP-89 derived male phantom was used for dose estimation. Organs and body weights as defined by ICRP-89 were scaled based on height and mass using the patient effective mass. Kidney volumes were measured for each patient on the CT images and used for the kidneys mass of the ICRP-89 phantom assuming a density of 1 g/ml. […]
# [1] = individual subjects, listed as [^177Lu]Lu-PSMA-I&T
smiles,measurement,setting,value
"O=C([O-])CC[C@H](NC(=O)N[C@@H](CCCCNC(=O)CCCCCCC(=O)NCCCC[C@@H](NC(=O)[C@@H](Cc1ccccc1)NC(=O)[C@@H](Cc1ccc(O)c(I)c1)NC(=O)CC[C@H](C(=O)[O-])N1CCN(CC(=O)[O-])CCN(CC(=O)[O-])CCN(CC(=O)[O-])CC1)C(=O)[O-])C(=O)[O-])C(=O)[O-].[177Lu+3].[H+].[H+].[H+].[H+].[H+] [^177Lu-PSMA I&T, (3S,7S,26R,29R,32R,37R)-29-benzyl-32-(4-hydroxy-3-iodobenzyl)-5,13,20,28,31,34-hexaoxo-37-(4,7,10-tris(carboxymethyl)-1,4,7,10-tetraazacyclododecan-1-yl)-4,6,12,21,27,30,33-heptaazaheptatriacontane-1,3,7,26,37-pentacarboxylic acid; lutetium-177 (III)]",Mean whole body effective dose,"12 patients, cycle 1",0.095±0.048 mSv/MBq
same,"Whole-body time integrated activity coefficient, mean","12 patients, cycle 1",24.1 ± 18.7 h
same,"absorbed dose, kidneys","12 patients, cycle 1",0.43±0.18 Gy/GBq
same,"absorbed dose, lacrimal glands","12 patients, cycle 1",0.67±0.33 Gy/GBq
same,"absorbed dose, left colon","12 patients, cycle 1",0.54±0.42 Gy/GBq
same,"absorbed dose, rectum","12 patients, cycle 1",0.52±0.40 Gy/GBq
same,"absorbed dose, red marrow","12 patients, cycle 1",0.08±0.15 Gy/GBq
same,"absorbed dose, right colon","12 patients, cycle 1",0.30±0.23 Gy/GBq
same,"absorbed dose, salivary glands","12 patients, cycle 1",0.13±0.08 Gy/GBq
same,"absorbed dose, urinary bladder wall","12 patients, cycle 1",0.38±0.03 Gy/GBq
same,"Whole-body time integrated activity coefficients, mean","12 patients, cycle 1, 7.4 GBq",24.1 ± 18.7 h
same,"estimated absorbed dose for the kidneys after 6 cycles, max","12 patients, 7.4 GBq per cycle",35.83 Gy
same,"estimated absorbed dose for the kidneys after 6 cycles, min","12 patients, 7.4 GBq per cycle",9.9 Gy
same,estimated mean absorbed dose for the kidneys after 6 cycles,"12 patients, 7.4 GBq per cycle, listed as [^177Lu]Lu-PSMA-I&T",19.3 Gy and 19.3±8.0 Gy
same,"Absorbed Dose, Mean","Adrenals, cycle 1, 12 patients",0.03 Gy/GBq
same,"Absorbed Dose, Mean","Brain, cycle 1, 12 patients",0.02 Gy/GBq
same,"Absorbed Dose, Mean","Esophagus, cycle 1, 12 patients",0.02 Gy/GBq
same,"Absorbed Dose, Mean","Eyes, cycle 1, 12 patients",0.02 Gy/GBq
same,"Absorbed Dose, Mean","Gallbladder Wall, cycle 1, 12 patients",0.02 Gy/GBq
same,"dose estimate, Mean",Heart Wall,0.02 Gy/GBq
same,"Absorbed Dose, Mean","Heart Wall, cycle 1, 12 patients",0.02 Gy/GBq
same,"dose estimate, Mean",Kidneys,0.43 Gy/GBq
same,"Absorbed Dose, Mean","Kidneys, cycle 1, 12 patients",0.43 Gy/GBq
same,"dose estimate, Mean",Lacrimal gland,0.67 Gy/GBq
same,"Absorbed Dose, Mean","Lacrimal glands (OLINDA sphere model), cycle 1",0.67 Gy/GBq
same,"dose estimate, Mean",Left colon,0.54 Gy/GBq
same,"Absorbed Dose, Mean","Left colon, cycle 1, 12 patients",0.54 Gy/GBq
same,"dose estimate, Mean",Liver,0.04 Gy/GBq
same,"Absorbed Dose, Mean","Liver, cycle 1, 12 patients",0.04 Gy/GBq
same,"Absorbed Dose, Mean","Lungs, cycle 1, 12 patients",0.02 Gy/GBq
same,"Absorbed Dose, Mean","Osteogenic Cells, cycle 1, 12 patients",0.05 Gy/GBq
same,"Absorbed Dose, Mean","Pancreas, cycle 1, 12 patients",0.02 Gy/GBq
same,"Absorbed Dose, Mean","Prostate, cycle 1, 12 patients",0.02 Gy/GBq
same,"dose estimate, Mean",Rectum,0.52 Gy/GBq
same,"Absorbed Dose, Mean","Rectum, cycle 1, 12 patients",0.52 Gy/GBq
same,"dose estimate, Mean",Red Marrow,0.08 Gy/GBq
same,"Absorbed Dose, Mean","Red Marrow, cycle 1, 12 patients",0.08 Gy/GBq
same,"dose estimate, Mean",Right colon,0.30 Gy/GBq
same,"Absorbed Dose, Mean","Right colon, cycle 1, 12 patients",0.30 Gy/GBq
same,"Absorbed Dose, Mean","Salivary Glands, cycle 1, 12 patients",0.13 Gy/GBq
same,"dose estimate, Mean",Salivary glands,0.13 Gy/GBq
same,"Absorbed Dose, Mean","Small Intestine, cycle 1, 12 patients",0.06 Gy/GBq
same,"dose estimate, Mean",Spleen,0.03 Gy/GBq
same,"Absorbed Dose, Mean","Spleen, cycle 1, 12 patients",0.03 Gy/GBq
same,"Absorbed Dose, Mean","Stomach Wall, cycle 1, 12 patients",0.02 Gy/GBq
same,"Absorbed Dose, Mean","Testes, cycle 1, 12 patients",0.02 Gy/GBq
same,"Absorbed Dose, Mean","Thymus, cycle 1, 12 patients",0.02 Gy/GBq
same,"dose estimate, Mean",Thyroid,0.02 Gy/GBq
same,"Absorbed Dose, Mean","Thyroid, cycle 1, 12 patients",0.02 Gy/GBq
same,"Absorbed Dose, Mean","Total Body, cycle 1, 12 patients",0.03 Gy/GBq
same,"Absorbed Dose, Mean","Urinary Bladder Wall, cycle 1, 12 patients",0.38 Gy/GBq
same,"dose estimate, Mean",Urinary bladder wall,0.38 Gy/GBq
same,Whole Body TIAC,"cycle 1, Mean of 12 subjects",24.1 h
same,Kidneys Absorbed Dose,"cycle 1, Mean of 12 subjects (Table 41)",0.43 Gy/GBq
same,Kidneys Absorbed Dose,"cycle 1, individual subjects (Table 41), listed as [^177Lu]Lu-PSMA-I&T",0.64 Gy/GBq and 0.34 Gy/GBq and 0.81 Gy/GBq and 0.29 Gy/GBq and 0.27 Gy/GBq (2×) and 0.22 Gy/GBq and 0.48 Gy/GBq and 0.32 Gy/GBq and 0.54 Gy/GBq and 0.41 Gy/GBq and 0.57 Gy/GBq
same,Whole Body TIAC,"cycle 1, individual subjects, listed as [^177Lu]Lu-PSMA-I&T",8.2 h and 17.2 h and 41.7 h and 14.4 h and 69.7 h and 43.7 h and 11.1 h and 12.6 h and 19.7 h and 14.2 h and 8.5 h and 27.6 h
same,Kidneys Absorbed Dose,"cycle 1, individual subjects, listed as [^177Lu]Lu-PSMA-I&T, absorbed dose per injected activity, Gy/GBq",0.27 Gy/GBq (2×) and 0.22 Gy/GBq and 0.48 Gy/GBq and 0.32 Gy/GBq and 0.54 Gy/GBq and 0.41 Gy/GBq and 0.57 Gy/GBq and 0.64 Gy/GBq and 0.34 Gy/GBq and 0.81 Gy/GBq and 0.29 Gy/GBq
same,Kidneys Absorbed Dose,"cycle 1, individual subjects, listed as [^177Lu]Lu-PSMA-I&T, total absorbed dose, Gy",2.00 Gy and 2.36 Gy and 3.99 Gy and 3.08 Gy and 4.48 Gy and 2.26 Gy
same,Extrapolation of Absorbed Dose to 6 Cycles Assuming 7.4 GBq per cycle,Mean of 12 subjects,19.3 Gy
same,Extrapolation of Absorbed Dose to 6 Cycles Assuming 7.4 GBq per cycle,[1],28.5 Gy and 15.0 Gy and 35.8 Gy and 13.0 Gy and 11.8 Gy and 9.9 Gy and 21.3 Gy and 12.0 Gy and 14.0 Gy and 23.8 Gy and 18.0 Gy and 25.1 Gy
same,Kidneys Absorbed Dose Assuming 7.4 GBq per cycle,Mean of 12 subjects,3.2 Gy
same,Kidneys Absorbed Dose Assuming 7.4 GBq per cycle,[1],4.8 Gy and 2.5 Gy and 6.0 Gy and 2.2 Gy and 2.0 Gy (2×) and 1.7 Gy and 3.6 Gy and 2.3 Gy and 4.0 Gy and 3.0 Gy and 4.2 Gy
same,Effective Dose Cycle 1,Mean of 12 subjects,0.09 mSv/MBq
same,Effective Dose Cycle 1,[1],0.03 mSv/MBq (2×) and 0.09 mSv/MBq and 0.12 mSv/MBq and 0.11 mSv/MBq (2×) and 0.16 mSv/MBq and 0.19 mSv/MBq and 0.07 mSv/MBq (2×) and 0.06 mSv/MBq and 0.08 mSv/MBq
